# In patent US7713994B2 (Wyeth LLC, priority 2005, dated 2010):
# Molecular target: T1, cyclin D1/cdk 4 enzyme (Homo sapiens, UniProt P11802)
# T1 construct: made in house; host or cells: Sf9 insect cells, recombinant baculovirus
# Experiment: CDK4 ELISA kinase assay (phospho-Rb ser 795 detection)
# Format: biochemical
# Settings: In Vitro Enzyme Assay, cyclin D1/cdk 4, read-out: CDK4 IC50
# Method: • 1. High-binding ELISA microtiter plates (Costar) were coated with 40 μl of the kinase substrate (GST fusion of C-terminal fragment of the retinoblastoma susceptibility gene product) diluted to 10 μg/ml in tris-buffered saline (TBS), overnight at 4° C. • 2. Non-specific binding sites were blocked for 1 hour at 4° C. with Superblock in TBS (Pierce), and the plates rinsed with water. • 3. For the screen, 1.5 μl of test compound (200 μg/ml stock in 20% DMSO/20 mM HEPES, pH 7.5) was added to each well. Final dose of the test compound in the assay was 10 ug/ml. […] The kinase reaction (30 μl) was dispensed into each well. Reactions contained 200 μM ATP, 0.5 mg/ml bovine serum albumin (BSA; Sigma), and 0.5 μl partially purified cyclin D1/cdk 4 enzyme*. The enzyme complex is expressed in insect cells (Sf9) infected with recombinant baculovirus and partially purified using ammonium sulfate fractionation. Reaction volumes were adjusted to 30 μl with kinase assay buffer (50 mM HEPES, pH 7.5, 10 mM MgCl2, 5% glycerol, 10 mM 2-mercaptoethanol). • *: For CDK2 assay, 1.0 μl cyclin E/CDK2 enzyme (diluted 1:1000 in kinase assay buffer) was used. The enzyme is isolated from insect cells (Sf9) infected with recombinant baculovirus and partially purified using ammonium sulfate fractionation. For CDK1 assay, 0.08 μl cyclin B/CDK1 enzyme [New England BioLabs; the enzyme is isolated from insect cells (Sf9) infected with recombinant baculovirus carrying human cdc 2 and human cyclin B] was used.
# […] • 5. Plates were incubated at 30° C. for 1 hour. • 6. The reaction mixture was removed by aspiration and replaced with 250 μl TBS containing 0.1% Tween-20 and 5% nonfat dry milk (blocking buffer). The plates were incubated at 4° C. for 1 hour. • 7. The blocking buffer was removed and replaced with 50 μl of the primary antibody [anti-phospho-Rb ser 795 (New England BioLabs) diluted 1:1000 in blocking buffer]. Incubation was at 4° C. for 16-20 hours. • 8. The wells were rinsed 3 times with 250 μl of TBS containing 0.1% Tween-20 followed by the addition of 50 μl of secondary antibody [anti-rabbit IgG conjugated to horseradish peroxidase (Amersham Life Science) diluted 1:1000 in blocking buffer]. • 9. After a 1 hour incubation at room temperature, the wells were rinsed 3 times with 250 μl of TBS/0.1% Tween 20. • 10. TMB (3,3′,5,5′-tetramethylbenzidine dihydrochloride) substrate solution (100 μl; Pierce) was added to each well and the color development reaction allowed to proceed 5-10 minutes at room temperature with shaking. The reaction was stopped by the addition of 2N sulfuric acid (100 μl) and the absorbance values read at 450 nm in a microplate reader (Molecular Devices). Analysis of Results: • 1. The percentage of the absorbance value in wells containing the test compound relative to control wells (no test agent) was determined. • 2. IC50 values of selected compounds were determined from inhibition curves, after subtracting background values (no substrate).
# T1 sequence (P11802 whole entry, species assumed): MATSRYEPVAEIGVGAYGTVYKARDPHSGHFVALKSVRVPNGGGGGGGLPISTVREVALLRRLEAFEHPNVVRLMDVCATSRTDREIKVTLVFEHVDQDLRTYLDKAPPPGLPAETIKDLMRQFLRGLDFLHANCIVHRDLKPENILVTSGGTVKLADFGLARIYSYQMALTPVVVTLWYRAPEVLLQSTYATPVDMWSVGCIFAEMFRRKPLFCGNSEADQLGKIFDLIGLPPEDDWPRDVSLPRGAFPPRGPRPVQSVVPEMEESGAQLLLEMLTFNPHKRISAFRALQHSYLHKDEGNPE
# T1 sequence (P24385 whole entry partner, species assumed): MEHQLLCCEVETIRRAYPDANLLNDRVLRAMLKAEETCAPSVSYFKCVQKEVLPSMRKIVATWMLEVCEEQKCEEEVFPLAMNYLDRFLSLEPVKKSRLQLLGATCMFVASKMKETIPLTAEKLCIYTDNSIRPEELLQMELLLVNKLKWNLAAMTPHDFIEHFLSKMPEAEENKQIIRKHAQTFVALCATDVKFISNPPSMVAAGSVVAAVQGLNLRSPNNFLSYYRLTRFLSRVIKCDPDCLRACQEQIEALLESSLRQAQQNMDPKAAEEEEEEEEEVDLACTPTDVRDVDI
row,IC50 [µM],SMILES
1,17.9,"CCS(=O)(=O)Nc1cccc(CNC=C2C(=O)NC(=O)c3ccccc32)c1 [Example 583, Ethanesulfonic acid (3-{[(1,3-dioxo-2,3-dihydro-1H-isoquinolin-4-ylidenemethyl)-amino]-methyl}-phenyl)-amide]"
2,20.9,"CN1CCN(c2ccc(NC=C3C(=O)NC(=O)c4ccc(-c5ccc(C(F)(F)F)cc5)cc43)cc2)CC1 [Example 687, 4-{[4-(4-Methyl-piperazin-1-yl)-phenylamino]-methylene}-6-(4-trifluoromethyl-phenyl)-4H-isoquinoline-1,3-dione]"
3,25.3,"CCCN(CCC)Cc1ccc(NC=C2C(=O)NC(=O)c3ccccc32)cc1 [Example 614, 4-[(4-Dipropylaminomethyl-phenylamino)-methylene]-4H-isoquinoline-1,3-dione]"
4,13,"N#CCc1ccc(NC=C2C(=O)NC(=O)c3ccc(-c4ccc5ccccc5c4)cc32)cc1 [Example 624, {4-[(6-Naphthalen-2-yl-1,3-dioxo-2,3-dihydro-1H-isoquinolin-4-ylidenemethyl)-amino]-phenyl}-acetonitrile]"
5,38.6,"N#CCc1ccc(NC=C2C(=O)NC(=O)c3ccc(-c4ccc(C(F)(F)F)cc4)cc32)cc1 [Example 709, (4-{[1,3-Dioxo-6-(4-trifluoromethyl-phenyl)-2,3-dihydro-1H-isoquinolin-4-ylidenemethyl]-amino}-phenyl)-acetonitrile]"
6,38.5,"O=C1NC(=O)c2ccccc2C1=CNCc1ccc(NS(=O)(=O)Cc2ccccc2)cc1 [Example 590, N-(4{[(1,3-Dioxo-2,3-dihydro-1H-isoquinolin-4-ylidenemethyl)-amino]-methyl}-phenyl)-C-phenyl-methanesulfonamide]"
7,29.7,"O=C1NC(=O)c2ccccc2C1=CNC(Cc1ccc(O)c(O)c1)C(=O)O (centres unmarked) [Example 566, 3-(3,4-Dihydroxy-phenyl)-2-[(1,3-dioxo-2,3-dihydro-1H-isoquinolin-4-ylidenemethyl)-amino]-propionic acid]"
8,30.7,"Cc1ccc(-c2ccc3c(c2)C(=CNc2ccc(N4CCN(C)CC4)cc2)C(=O)NC3=O)cc1 [Example 692, 4-{[4-(4-Methyl-piperazin-1-yl)-phenylamino]-methylene}-6-p-tolyl-4H-isoquinoline-1,3-dione]"
9,24.2,"CN1CCN(c2ccc(NC=C3C(=O)NC(=O)c4ccc(C=CCCC(=O)O)cc43)cc2)CC1 [Example 795, 5-(4-{[4-(4-Methyl-piperazin-1-yl)-phenylamino]-methylene}-1,3-dioxo-1,2,3,4-tetrahydro-isoquinolin-6-yl)-pent-4-enoic acid]"
10,23.5,"CNc1ccc(CN/C=C2\C(=O)NC(=O)c3ccccc32)cc1 [Example 604, 4-[(4-Methylamino-benzylamino)-methylene]-4H-isoquinoline-1,3-dione]"
11,21.2,"CCNS(=O)(=O)c1ccc(CN/C=C2\C(=O)NC(=O)c3ccccc32)cc1 [Example 606, 4-{[(1,3-Dioxo-2,3-dihydro-1H-isoquinolin-4-ylidenemethyl)-amino]-methyl}-N-ethyl-benzenesulfonamide]"
12,20.9,"COc1cccc(-c2ccc3c(c2)C(=CNc2ccc(CC#N)cc2)C(=O)NC3=O)c1 [Example 702, (4-{[6-(3-Methoxy-phenyl)-1,3-dioxo-2,3-dihydro-1H-isoquinolin-4-ylidenemethyl]-amino}-phenyl)-acetonitrile]"
13,19.7,"NS(=O)(=O)c1ccc(CNC=C2C(=O)NC(=O)c3ccccc32)cc1 [Example 540, 4-{[(1,3-Dioxo-2,3-dihydro-1H-isoquinolin-4-ylidenemethyl)-amino]-methyl}-benzenesulfonamide]"
14,17.3,"O=C1NC(=O)c2ccccc2C1=CNc1ccc(C(=O)O)c(O)c1 [Example 560, 4-[(1,3-Dioxo-2,3-dihydro-1H-isoquinolin-4-ylidenemethyl)-amino]-2-hydroxy-benzoic acid]"
